Converted amounts (≈) assume the structure as drawn.
Experiments:
PBL [1] = experiment: Antiproliferative activity against PHA-induced Homo sapiens (human) peripheral blood lymphocytes assessed as inhibition of [3H]-thymidine incorporation after 72 hr by beta-scintillation counting analysis; type: functional, cell-based
Neutrophil [2] = experiment: Immunomodulatory activity in neutrophils assessed as decrease in oxidative burst after 30 min by luminol-enhanced chemiluminescence assay; type: functional, cell-based; details: for IC50: 0.5 h
PBL [3] = experiment: Stimulation of PHA-induced Homo sapiens (human) peripheral blood lymphocytes proliferation assessed as increase in [3H]-thymidine incorporation at 50 ug/ml after 72 hr by beta-scintillation counting analysis relative to control; type: functional
PBL [4] = experiment: Antiproliferative activity against PHA-induced Homo sapiens (human) peripheral blood lymphocytes assessed as inhibition of [3H]-thymidine incorporation at 50 ug/ml after 72 hr by beta-scintillation counting analysis relative to control; type: functional
Neutrophil [5] = experiment: Immunomodulatory activity in neutrophils assessed as decrease in oxidative burst at 50 ug/mL after 30 min by luminol-enhanced chemiluminescence assay relative to control; type: functional; parameters: scale not given: the % may be the effect or the level left

SMILES | IC50 (PBL [1]) | inhibition (PBL [1]) | Activity (Neutrophil [2]) | IC50 (Neutrophil [2]) | Activity (PBL [3]) | inhibition at 50 µg/mL (PBL [4]) | Activity (Neutrophil [5])
C=C(C)[C@@H]1CC[C@]2(C)CC[C@]3(C)[C@H](CC[C@@H]4[C@@]5(C)CC[C@H](O)C(C)(C)[C@@H]5CC[C@]43C)[C@@H]12 [LUPEOL] | 13.2 µg/mL (≈ 30.8 µM) | Dose-dependent effect | Dose-dependent effect | 11.3 µg/mL | – | – | –
C=C(C)[C@@H]1CC[C@]2(C(=O)O)CC[C@]3(C)[C@H](CC[C@@H]4[C@@]5(C)CC[C@H](O)C(C)(C)[C@@H]5CC[C@]43C)[C@@H]12 [BETULINIC ACID] | – | – | Dose-dependent effect | 11.1 µg/mL | 38.2% | – | –
C=C(C)[C@@H]1CC[C@]2(C(=O)OCC)CC[C@]3(C)[C@H](CC[C@@H]4[C@@]5(C)CC[C@H](O)C(C)(C)[C@@H]5CC[C@]43C)[C@@H]12 [ETHYL BETULINATE] | 12.9 µg/mL (≈ 26.6 µM) | – | – | 3.85 µg/mL | – | – | –
C=C(C)[C@@H]1CC[C@]2(C)CC[C@]3(C)[C@H](CC[C@@H]4[C@@]5(C)CC[C@H](OC(C)=O)C(C)(C)[C@@H]5CC[C@]43C)[C@@H]12 [LUPENYL ACETATE] | – | – | – | – | – | 38.9% | 41.12%

— ChEMBL document CHEMBL3044669, “Molecular modeling, structure activity relationship and immunomodulatory properties of some lupeol derivatives” (Med Chem Res, 2013)
